Measured values: US20120076785A1, “METHOD FOR INHIBITING NEURODEGENERATION” (GENENTECH, INC., priority 2009, published 2012)
Values belong to the compound of their own block, whether it stands above or below them. Where a SMILES comes first, the peptide text is derived from it. The star is where a group is joined. Cbz = O=C(OCc1ccccc1)*; CH2F = FC*

Assays:
commissural neurons = assay: dorsal spinal cord survival assay (commissural explant cultures); format: cell-based, rat
Procedure: To examine functional roles of DR6 in axonal degeneration and programmed cell death of commissural neurons, an RNAi-based dorsal spinal cord survival assay (Kennedy et al., Cell, 78:425-435 (1994); Wang et al., supra, 1999) was conducted (see FIG. 3). E13 rat or E11.5 mouse embryos were placed in L15 medium (Gibco) and siRNAs (IDT) together with green fluorescent protein (“GFP”)-encoding plasmids were injected into the neural tubes. The siRNAs and plasmids were then delivered to dorsal progenitor cells by electroporation. Dorsal spinal cord explants were dissected out, embedded into a 3D-collagen gel matrix, and cultured in Opti-MEM/F12 medium (Invitrogen) with recombinant netrin-1 ([…]) and 5% horse serum (Sigma) at 37° C. in a 5% CO2 environment. Within 16 hours in response to chemo-attractant netrin-1, commissural axons grow out of the explant into the collagen matrix gel (Kennedy et al., supra, 1994). Commissural axons are visualized by GFP fluorescence by observation using an inverted microscope.
Materials and methods used to generate the data shown in this figure are as follows. To investigate physiological roles of DR6 receptor in axonal degeneration and programmed cell death of commissural neurons, a dorsal spinal cord survival assay according to protocols known in the art (Kennedy et al., Cell 78:425-435 (1994); Wang et al., Nature 401:765-769 (1999)) was performed (with data shown in FIG. 4B). E13 rat embryos were placed in L15 medium (Gibco) and injected into their neural tubes with the following siRNA constructs (FIG. 4B):
Control non-targeting, or targeting DR6 siRNA #2, or targeting DR6 siRNA #3 (IDT) together with either wild-type or mis-match DR6 cDNA and GFP-encoding plasmids. DR6 cDNA and GFP cDNA were subcloned into pCAGGS vector backbone (commercially available from BCCM/LMBP). siRNAs and plasmids were then delivered to dorsal progenitor cells by electroporation. Dorsal spinal cord explants were then dissected out, embedded into a 3D collagen gel matrix and cultured in Opti-MEM/F12 medium (Invitrogen) with recombinant netrin-1 and 5% horse serum (Sigma) at 37° C. in a 5% CO2 environment. Within 16 hours in response to chemo-attractant netrin-1 commissural axons grow out of the explant into the collagen matrix gel (Kennedy et al., Cell 78:425-435 (1994). Commissural axons are visualized by GFP fluorescence by observation using inverted microscope. After 48 hours in culture in the absence of trophic factor support derived from the floorplate, commissural neurons undergo programmed cell death and their axons degenerate (Wang et al., Nature, 401:765-769 (1999)) (FIG. 4B). However, the axonal degeneration program can be blocked by introduction of a targeting DR6-specific siRNA #3 (FIG. 4B). The specific, on-target effect of DR6-specific siRNA #3 is further confirmed in a rescue experiment in which axonal degeneration phenotype is restored by co-expression of the siRNA#3-resistant mis-match DR6 cDNA construct together with DR6 siRNA #3 (FIG. 4B). Presented experimental evidence establishes that DR6 receptor function is required for axonal degeneration and death of commissural neurons upon withdrawal from their intermediate target, the floorplate of the spinal cord.
A dorsal spinal cord survival assay (as described in Example 2 above) was conducted using anti-DR6 antibodies. Microscopic observation (using green fluorescence channel for GFP) was employed to visualize commissural axons. […]

sensory axons = assay: NGF deprivation assay in Campenot chambers (local sensory axon degeneration); format: cell-based, mouse; conditions: for sensory axonal degeneration induced by NGF withdrawal: 30 μg/ml hDR6-ECD-Fc in axonal compartment, 0 to 24 hours
Procedure: Materials and methods used to generate the data shown in this figure are as follows. To examine whether ligand is required for DR6 function in sensory axonal degeneration, a compartmented culture analysis of sensory axon growth and degeneration was carried out as follows. A Campenot nerve cell chamber system was used to isolate neuronal processes (axons) from the cell bodies in different compartments (separate fluid environments), analogous to neuronal cell bodies in one location of the nervous system projecting their axons to a distal target in another location. The assay was carried out as originally described by Campenot (Campenot et al., J. Neurosci. 11(4): 1126-39 (1991)) with the following modifications. Briefly, 35-mm tissue culture dishes were coated with PDL/Laminin and scratched with a pin rake (Tyler Research) to generate tracks, as illustrated for example in FIGS. 1 and 4 of Campenot et al., supra.
A drop of culture medium (Neurobasal medium with B27 supplement, 25 ng/ml of NGF, and 4 g/L of methylcellulose) was placed on the scratched substratum. A Teflon divider (Tyler Research) was seated on silicone grease and a dab of silicone grease was placed at the mouth of the center slot. Dissociated sensory neurons derived from E12.5 mouse DRGs were suspended in methylcellulose-thickened medium and loaded into a disposable sterile syringe fitted with a 22-gauge needle. This cell suspension was injected into the center slots of each compartmented dish under the dissecting microscope. The neurons were allowed to settle overnight. […]
To trigger local axonal degeneration, NGF-containing medium from axonal compartments was substituted with neurobasal medium with an NGF blocking antibody (anti-NGF, Genentech, Inc., 20 ug/ml). Zero hours, 6 hours, or 24 to 48 hours following NGF deprivation, sensory neurons were fixed in 4% PFA for 30 minutes at room temperature and processed for immunofluorescence staining with axonal marker TUJ-1 (Covance, 1:500 dilution) to visualize degenerating axons by fluorescence microscopy (FIG. 11B) (as above described in Example 7). […]
To examine whether ligand is required for DR6 function in axonal degeneration program triggered by NGF withdrawal, 30 μg/ml of hDR6-ECD-Fc immunoadhesin protein (described in Example 3 above) or 30 μg/ml of a control Fc (Genentech, Inc.) was included together with anti-NGF treatment in axonal compartments of Campenot Chambers. Zero to 24 hours after NGF deprivation, axons in Campenot Chambers were fixed with 4% PFA/PBS and visualized by immuno-fluorescence staining with TUJ-1 (1:500, Covance)/secondary antibody conjugated to a fluorescence group Alexa 488 (Molecular Probes, BD) (FIG. 11B). […]

[1] = target: p75 (as used in the ELISA and in general statements); assay: ELISA, format not described (data not shown)
[2] = test system: DR6-AP binding sites on BAX null sensory axons; assay: in situ DR6-AP sensory axon binding assay; format: cell-based, mouse; conditions: BACE inhibitor 1 uM; BAX null E12.5 sensory axons
Procedure: For the in situ DR6-AP sensory axon binding assay, either wild-type or Bax null sensory explants were cultured in Neurobasal medium/B27 (Invitrogen) as outlined in the Examples 7-8 above, with 50 ng/mlNGF (Roche). Two days post-plating, DRG explants were either left untreated or deprived from NGF as described above in Examples 7-8. Bax inhibitory peptide was added where indicated on FIG. 12B (10 uM, Bax-V5, Tocris). Twelve hours post-NGF deprivation, DRG explants were washed twice with the binding buffer (HBSS, Gibco Cat. No. 14175-095, with 0.2% BSA, 0.1% NaN3, 5 mM CaCl2, 1 mM MgCl2, 20 mM HEPES, pH=7.0). AP binding assay was then carried out by making a 1:1 mixture of DR6-AP conditioned medium and the binding buffer (or control AP conditioned medium and the binding buffer), which was applied directly to DRG explants in 8-well culture slides (Becton, Dickinson and Company) and incubated for 90 minutes at room temperature.
Following the incubation, unbound DR6-AP proteins were washed away by rinsing DRG explants five times with the binding buffer. DRG explants were then fixed with 3.7% formaldehyde diluted in PBS, for 12 minutes at room temperature. The remaining formaldehyde was removed by rinsing DRG explants 3 times with HBS buffer (20 mM HEPES pH=7.0, 150 mM NaCl). Endogenous AP activity was blocked by heat inactivation at 65° C. in HBS buffer for 30 minutes. […]

Compound: hDR6-ECD-Fc: human DR6 extracellular domain sequence fused with Fc, SEQ ID NO: 4
commissural axon degeneration (commissural neurons; 30 μg/ml and 10 μg/ml hDR6-ECD-Fc, 48 hours): delayed
sensory axonal degeneration induced by NGF withdrawal (sensory axons): delayed the onset of axonal degeneration
sensory axonal degeneration induced by NGF withdrawal (sensory axons; listed as DR6-Fc): delayed

Compound: CC[C@H](C)[C@H](NC(=O)OCc1ccccc1)C(=O)N[C@@H](CCC(=O)OC)C(=O)N[C@H](C(=O)N[C@@H](CC(=O)OC)C(=O)CF)[C@@H](C)O [Z-IETD-FMK] (Cbz-IE(OMe)TD(OMe)-CH2F)
axonal degeneration after NGF deprivation (sensory axons; 24 hours anti-NGF, SP 600125 1 uM, Z-IETD-FMK 10 uM, Z-DEVD-FMK 10 uM): delayed

Compound: Abeta: recombinant human Beta amyloid amino acids 1-42, Chemicon
induction of commissural axonal degeneration (commissural neurons; Abeta 1-42 3 μM added 24 hours after plating with BACE inhibitor 1 uM): axonal degeneration triggered

Compound: (L)-HIV-TAT48-57-PP-JBD20 [L-JNK-I]
stereotyped degeneration of commissural neurons in DSC explant cultures (commissural neurons; JNK inhibitor at 10 μM, 48 hr, no trophic factor, listed as L-JNKI-1): largely blocks stereotyped degeneration
axonal degeneration of commissural neurons (commissural neurons; peptide JNK inhibitor at 1 μM): partially blocked axonal degeneration

EC50 [1]: 300 nM
Compound: APP (as used in the p75 ELISA) (from UniProt P05067 18-286) (ligand)

Compound: 5′-CAAUAGGUCAGGAAGAUGGCU-3′ [DR6-specific siRNA #3]
axonal degeneration of commissural neurons (commissural neurons; siRNA electroporated, 48 hours in culture without floorplate trophic support): blocked

Compound: OM99-2
axonal degeneration after NGF deprivation (sensory axons; BACE inhibitor 1 uM): blocked
disappearance of DR6-AP binding sites from sensory axons following NGF withdrawal [2]: block the disappearance of DR6-AP binding sites
